Experimental data taken from US11352400B2, “PI3K gamma inhibitor peptide for treatment of respiratory system diseases” (Kither Biotech S.r.I., priority 2014, dated 2022).

Tests used:
β2-AR/cAMP signaling = assay: FRET imaging of cAMP (ICUE3 probe) in hBSMCs after β2-AR stimulation; format: cell-based, human; settings: hBSMCs pre-treated 50 μM, 30 minutes; ISO 100 nM + CGP-20712A 100 nM
Procedure: Human bronchial smooth muscle cells (hBSMCs) were transfected with a plasmid encoding the FRET probe for cAMP, ICUE3 (described in the U.S. Pat. No. 8,236,523 B2) (2), by electroporation with a Nucleofector device (AMAXA, Gaithersburg, Md.), according to the manufacturer's protocol. Briefly, 1×10^6 cells were re-suspended in 100 μL of nucleofection solution (VPI-1004, AMAXA, Gaithersburg, Md.), mixed with 1 μg of pcDNA3-ICUE3 (described in U.S. Pat. No. 8,236,523 B2), and subjected to electroporation in a nucleofection apparatus of Amaxa Biosystems (Program A-033). Live cell imaging experiments were performed at 24 hours after transfection.
Measurements of cAMP levels were performed on human bronchial smooth muscle cells (hBSMCs) that express the FRET probe ICUE3, as described previously (2). Briefly, cells were maintained in a K^+-Ringer solution containing (in mmol/L) 121.6 NaCl, 5.4 KCl, 1.8 MgCl2, 1.8 CaCl2, 4 NaHCO3, 0.8 NaH2PO4, 5 D-glucose, 5 sodium pyruvate, 10 HEPES, at pH 7.4. […] FRET efficiency was calculated using the “Method 3” provided by the Leica wizard application for FRET imaging and sensitized emission, according to which: EA(i)=B/A, where EA(i) is the apparent FRET efficiency; A and B are the intensities of the CFP channel and FRET, respectively. […]

CFTR = assay: cAMP-mediated (PKA) phosphorylation of CFTR in NuLi-1 cells; format: cell-based, human; settings: 30 minutes
Procedure: Human airway epithelial cell lines expressing a wild-type CFTR (NuLi-1) or with the ΔF508 mutation (CuFi-1) were purchased from ATCC (NuLi-1 product code: ATCC® CRL-4011™; CuFi-1 product code: ATCC® CRL-4013™). Cells were cultured in Dulbecco's Modified Eagle Medium (DMEM, Gibco, Carlsbad, Calif.) supplemented with 10% fetal bovine serum (FBS), 30 μg/mL of penicillin, 100 μg/mL of streptomycin and 300 μg/mL hygromycin B (Gibco, Carlsbad, Calif.).
For immunoprecipitation assays, protein extracts were pre-incubated with 30 μL of a 1:1 mixture of protein A or G and sepharose (Amersham Biosciences, Buckinghamshire, UK) and subsequently incubated with 20 μL of a 1:1 mixture of protein A or G and sepharose and […] of primary antibody for each mg of protein, for 2 hours at 4° C. Immune complexes were washed extensively with lysis buffer and used for Western blotting or subjected to measurements of phosphodiesterase activity.
The antibody that recognizes substrates phosphorylated by PKA (P-PKA substrate) was purchased from Cell Signaling Technology (Danvers, Mass., USA; product code: #9621) and the antibody against CFTR clone M3A7 from Millipore (Billerica, Mass., USA; product code: 05-583).

[1] = tested on: lung inflammation in mice sensitized with ovalbumin; assay: Analysis of airway inflammation in asthmatic mice; format: in vivo, BALB/C mice; settings: OVA-sensitized mice, vs P1
Procedure: Ovalbumin (100 μg) (OVA, Sigma-Aldrich, St. Louis, Mo.), complexed with aluminum potassium sulfate (1 mg, alum) was administered intraperitoneally (i.p.) on days 1 and 14, and intra-nasally (i.n.) (50 μg OVA in 50 μl PBS) on days 14, 25, 26, and 27. Control mice received i.p. injections of alum and i.n. injections of PBS only. Airway hyperreactivity induced by inhaled methacholine was measured at 24 hours after the final dose of OVA (Day 28).
Wild-type BALB/C mice were treated, by intra-tracheal instillation, with 25 μg of the Trojan peptide derived from PI3Kγ or equimolar amounts of P1 control peptide, in a final volume of 70 μL of phosphate-buffered saline (PBS), before each intranasal administration of ovalbumin (days 14, 25, 26, and 27 of the protocol of immunization with ovalbumin). At 24 hours after the final injection (day 28), mice were anesthetized (sodium pentobarbital, 70-90 mg/kg, i.p.) and the tracheas incised and cannulated. The airways were washed with 2.5 ml of phosphate-buffered saline solution (PBS). The total number of cells in the bronchoalveolar lavage (BAL) was determined with a Neubauer hemocytometer. A volume of 50 μL of BAL was centrifuged onto cytospin glass slides at 400 rpm at room temperature for 5 minutes and stained with a Diff-Quick system (LabAids, Ronkonkoma, USA). A total of 100 cells per slide were counted and classified as neutrophils, macrophages, lymphocytes and eosinophils on the basis of morphological criteria. Erythrocytes and epithelial cells were ignored and the results were expressed as cells/ml.
To assess the peribronchial inflammation, the lungs of a group of animals that had not been subjected to bronchoalveolar lavage were explanted, fixed in a solution of 4% paraformaldehyde (PFA) for 24 hours at 4° C. and embedded in paraffin. Slices that were 5 μm-thick, deparaffinized, stained with a hematoxylin-eosin solution (Bio-Optica, Milano, Italy), dehydrated and mounted with glass coverslips. The extent of peribronchial inflammation was classified as follows: 0—normal; 1—few inflammatory cells; 3—a thick ring of inflammatory cells.
To evaluate the presence of goblet cells, lung slices were stained with periodic acid-Schiff's reagent (PAS) (Bio-Optica, Milano, Italy) and the percentage of PAS-positive cells was calculated by counting the number of PAS-positive epithelial cells and total epithelial cells.

[2] = 25 μg/mouse intra-tracheal before each intranasal OVA

RQIKIWFQNRRMKWKKGKATHRSPGQIHLVQRHPPSEESQAF (fusion peptide comprising SEQ ID No.1 and SEQ ID No.3) [Trojan peptide derived from PI3Kγ]
increase of cAMP accumulation following stimulation of β2-ARs (β2-AR/cAMP signaling): 35%
CFTR phosphorylation (cAMP-mediated) (CFTR; 25 μM, vs vehicle or P1): significantly higher
cAMP-dependent CFTR phosphorylation induced by a PDE4 inhibitor (CFTR; peptide 25 μM together with Rolipram 10 μM): further enhanced
number of goblet cells (PAS-positive) [1, 2]: significantly reduced
number of neutrophils in the bronchoalveolar lavage [1, 2]: significantly lower
peribronchial inflammatory infiltrate [1, 2]: significantly reduced
eosinophils in the bronchoalveolar lavage ([1]; 25 μg/mouse): unchanged
lymphocytes in the bronchoalveolar lavage ([1]; 25 μg/mouse): unchanged
macrophages in the bronchoalveolar lavage ([1]; 25 μg/mouse): unchanged
